From ChEMBL document CHEMBL1201862, “PubChem BioAssay data set” (2004)
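Compound exposure: 48 hours, 5 concentrations, 96-well plates. GI50 marks 50% less growth.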 The source made the active and inactive calls. Rule as the data show it: active = GI50 up to about 1.1 µM and inactive = higher.

Key:
Assay in all cases: growth of human tumour cells (NCI), 48 h
CAKI-1 = tested on: CAKI-1
COLO 205 = tested on: COLO 205
DU-145 = tested on: DU-145
HT-29 = tested on: HT-29
Hs-578T = tested on: Hs-578T
IGROV-1 = tested on: IGROV-1
K562 = tested on: K562
KM12 = tested on: KM12
MCF7 = tested on: MCF7
MDA-MB-231 = tested on: MDA-MB-231
Malme-3M = tested on: Malme-3M
NCI-H23 = tested on: NCI-H23
NCI-H522 = tested on: NCI-H522
NCI/ADR-RES = tested on: NCI/ADR-RES
OVCAR-8 = tested on: OVCAR-8
RXF 393 = tested on: RXF 393
SF-295 = tested on: SF-295
SK-MEL-28 = tested on: SK-MEL-28
T47D = tested on: T47D
UACC-257 = tested on: UACC-257

SMILES	GI50 (CAKI-1)	GI50 (COLO 205)	GI50 (DU-145)	GI50 (HT-29)	GI50 (Hs-578T)	GI50 (IGROV-1)	GI50 (K562)	GI50 (KM12)	GI50 (MCF7)	GI50 (MDA-MB-231)	GI50 (Malme-3M)	GI50 (NCI-H23)	GI50 (NCI-H522)	GI50 (NCI/ADR-RES)	GI50 (OVCAR-8)	GI50 (RXF 393)	GI50 (SF-295)	GI50 (SK-MEL-28)	GI50 (T47D)	GI50 (UACC-257)
O=C(CN1CCN(C(=O)OCc2ccccc2)CCN(CC(=O)N2CCCCC2)CCN(C(=O)OCc2ccccc2)CC1)N1CCCCC1	5.04 µM (inactive)	11.9 µM (inactive)	21.4 µM (inactive)	7.46 µM (inactive)	14.3 µM (inactive)	10.3 µM (inactive)	5.4 µM (inactive)	17.7 µM (inactive)	17.1 µM (inactive)	14.2 µM (inactive)	8.38 µM (inactive)	20.7 µM (inactive)	5.52 µM (inactive)	10.9 µM (inactive)	8.61 µM (inactive)	11.9 µM (inactive)	18.7 µM (inactive)	14.7 µM (inactive)	17 µM (inactive)	3.49 µM (inactive)
O=C1c2ccccc2NC(c2cc(Cl)cc(Cl)c2O)N1CCc1ccccn1 (stereo not given)	> 100 µM (inactive)	> 100 µM (inactive)	46.7 µM (inactive)	80.9 µM (inactive)	55.8 µM (inactive)	> 100 µM (inactive)	> 100 µM (inactive)	64 µM (inactive)	61 µM (inactive)	> 100 µM (inactive)	30.8 µM (inactive)	> 100 µM (inactive)	41.9 µM (inactive)	60.4 µM (inactive)	80.2 µM (inactive)	44.7 µM (inactive)	> 100 µM (inactive)	> 100 µM (inactive)	26.7 µM (inactive)	97.9 µM (inactive)
Cc1cccc2c(NCCCN(C)C)c3c([N+](=O)[O-])ccc(C)c3nc12	0.2 µM (active)	0.0802 µM (active)	0.0887 µM (active)	0.0809 µM (active)	0.439 µM (active)	0.0574 µM (active)	0.115 µM (active)	0.103 µM (active)	< 0.0161 µM (active)	0.217 µM (active)	0.175 µM (active)	0.034 µM (active)	< 0.0326 µM (active)	0.337 µM (active)	0.206 µM (active)	0.0647 µM (active)	0.0689 µM (active)	2.32 µM (inactive)	0.0879 µM (active)	0.192 µM (active)
